Source: patent US20250311727A1, “SUBSTITUTED 2-AMINOAZINES AND SALTS THEREOF, AND USE THEREOF AS HERBICIDAL ACTIVE SUBSTANCES” (BAYER AKTIENGESELLSCHAFT, priority 2022, published 2025)

How the values were obtained:
Type in all cases: in vivo
[1] = system: Alopecurus myosuroides; test: Post-emergence herbicidal efficacy at 80 g/ha, ALOMY; conditions: rated visually after about 3 weeks vs untreated controls, 100% = plants have died
Description: (§1) Unwanted plants/weeds: • ABUTH: Abutilon theophrasti • ALOMY: Alopecurus myosuroides • AMARE: Amaranthus retroflexus • DIGSA: Digitaria sanguinalis • ECHCG: Echinochloa crus-galli • KCHSC: Kochia scoparia • LOLRI: Lolium rigidum • MATIN: Matricaria inodora • POAAN: Poa annua • POLCO: Polygonum convolvulus • SETVI: Setaria viridis • STEME: Stellaria media • VERPE: Veronica persica • VIOTR: Viola tricolor A. Post-Emergence Herbicidal Efficacy at 320 g/ha
(§2) Seeds of monocotyledonous and dicotyledonous weeds and crop plants were placed in sandy loam in plastic or organic planting pots, covered with soil and cultivated in a greenhouse under controlled growth conditions. 2 to 3 weeks after sowing, the test plants were treated at the one-leaf stage. The compounds of the invention, formulated in the form of wettable powders (WP) or as emulsion concentrates (EC), were then sprayed onto the green parts of the plants as aqueous suspension or emulsion with addition of 0.5% additive at a water application rate of 600 l/ha (converted). After the test plants had been kept in the greenhouse under optimum growth conditions for about 3 weeks, the activity of the preparations was rated visually in comparison to untreated controls. For example, 100% activity=the plants have died, 0% activity=like control plants.
(§3) Tables B1 to B11 below show the effects of selected compounds of the general formula (I) according to Table 1 on various harmful plants and an application rate corresponding to 80 g/ha, which were obtained by the experimental procedure mentioned above.

[2] = system: Amaranthus retroflexus; test: Pre-emergence herbicide efficacy at 320 g/ha, AMARE; conditions: scored visually after about 3 weeks vs untreated controls, 100% = plants have died
Summary of the method: (§4)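 Compound formulated as wettable powder or emulsion concentrate is applied onto covered, sown sandy loam soil with 0.5% additive. Plants grow under greenhouse conditions, and after roughly 3 weeks weed control is rated by eye as a percentage relative to untreated pots.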

[3] = system: Stellaria media; test: Post-emergence herbicidal efficacy at 320 g/ha, STEME; conditions: rated visually after about 3 weeks vs untreated controls, 100% = plants have died
Summary of the method: (§5)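 Effects are visual ratings taken about three weeks after foliar application, scaled from 0% (as untreated control) to 100% (plants died). Application was at the one-leaf stage in greenhouse-grown pots.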

[4] = system: Matricaria inodora; test: Pre-emergence herbicide efficacy at 320 g/ha, MATIN; conditions: scored visually after about 3 weeks vs untreated controls, 100% = plants have died
Summary of the method: as §4

[5] = system: Polygonum convolvulus; test: Pre-emergence herbicide efficacy at 80 g/ha, POLCO; conditions: scored visually after about 3 weeks vs untreated controls, 100% = plants have died
Summary of the method: (§6)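 Compounds are applied to soil covering sown seeds (aqueous suspension or emulsion, 0.5% additive, 600 l/ha), before emergence. Pots stay in the greenhouse for about 3 weeks. Damage is then judged by eye as % of control, 100% meaning plant death.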

[6] = system: Stellaria media; test: Pre-emergence herbicide efficacy at 320 g/ha, STEME; conditions: scored visually after about 3 weeks vs untreated controls, 100% = plants have died
Summary of the method: as §4

[7] = system: Veronica persica; test: Pre-emergence herbicide efficacy at 320 g/ha, VERPE; conditions: scored visually after about 3 weeks vs untreated controls, 100% = plants have died
Summary of the method: as §4

[8] = system: Digitaria sanguinalis; test: Pre-emergence herbicide efficacy at 320 g/ha, DIGSA; conditions: scored visually after about 3 weeks vs untreated controls, 100% = plants have died
Summary of the method: as §4

[9] = system: Alopecurus myosuroides; test: Pre-emergence herbicide efficacy at 320 g/ha, ALOMY; conditions: scored visually after about 3 weeks vs untreated controls, 100% = plants have died
Description: as §1
Seeds of mono- and dicotyledonous weed plants were placed in plastic pots in sandy loam soil (doubly sown with one species each of mono- or dicotyledonous weed plants per pot) and covered with soil. The compounds of the invention, formulated in the form of wettable powders (WP) or as emulsion concentrates (EC), were then applied to the surface of the covering soil as aqueous suspension or emulsion with addition of 0.5% additive at a water application rate of 600 litres per hectare (converted). After the treatment, the pots were placed in a greenhouse and kept under good growth conditions for the test plants. After about 3 weeks, the efficacy of the preparations was scored visually in comparison with untreated controls as percentages.
(§7) For example, 100% activity=the plants have died, 0% activity=like control plants.
Tables C1 to C12 below show the effects of selected compounds of the general formula (I) according to Table 1 on various harmful plants and at an application rate corresponding to 320 g/ha, which were obtained by the trial procedure specified above.

[10] = system: Amaranthus retroflexus; test: Post-emergence herbicidal efficacy at 80 g/ha, AMARE; conditions: rated visually after about 3 weeks vs untreated controls, 100% = plants have died
Summary of the method: (§8)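 Post-emergence greenhouse test: one-leaf weeds sprayed with formulated compound (0.5% additive, 600 l/ha), visually rated about 3 weeks later against untreated controls.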

[11] = system: Alopecurus myosuroides; test: Pre-emergence herbicide efficacy at 80 g/ha, ALOMY; conditions: scored visually after about 3 weeks vs untreated controls, 100% = plants have died
Description: as §1
(§9) Seeds of monocotyledonous and dicotyledonous weed plants and crop plants were placed in plastic or organic planting pots and covered with soil. The compounds of the invention, formulated in the form of wettable powders (WP) or as emulsion concentrates (EC), were then applied to the surface of the covering soil as aqueous suspension or emulsion with addition of 0.5% additive at a water application rate equivalent to 600 l/ha. After the treatment, the pots were placed in a greenhouse and kept under good growth conditions for the test plants. After about 3 weeks, the efficacy of the preparations was scored visually in comparison with untreated controls as percentages. For example, 100% activity=the plants have died, 0% activity=like control plants.
(§10) Tables D1 to D12 below show the effects of selected compounds of the general formula (I) according to Table 1 on various harmful plants and an application rate corresponding to 80 g/ha, which were obtained by the experimental procedure mentioned above.

[12] = system: Poa annua; test: Pre-emergence herbicide efficacy at 320 g/ha, POAAN; conditions: scored visually after about 3 weeks vs untreated controls, 100% = plants have died
Summary of the method: as §4

[13] = system: Veronica persica; test: Post-emergence herbicidal efficacy at 80 g/ha, VERPE; conditions: rated visually after about 3 weeks vs untreated controls, 100% = plants have died
Summary of the method: as §8

[14] = system: Kochia scoparia; test: Post-emergence herbicidal efficacy at 320 g/ha, KCHSC; conditions: rated visually after about 3 weeks vs untreated controls, 100% = plants have died
Summary of the method: as §5

[15] = system: Kochia scoparia; test: Pre-emergence herbicide efficacy at 320 g/ha, KCHSC; conditions: scored visually after about 3 weeks vs untreated controls, 100% = plants have died
Summary of the method: as §4

[16] = system: Abutilon theophrasti; test: Pre-emergence herbicide efficacy at 80 g/ha, ABUTH; conditions: scored visually after about 3 weeks vs untreated controls, 100% = plants have died
Description: as §1, §9, §10

[17] = system: Veronica persica; test: Pre-emergence herbicide efficacy at 80 g/ha, VERPE
Summary of the method: as §6

[18] = system: Viola tricolor; test: Post-emergence herbicidal efficacy at 80 g/ha, VIOTR; conditions: rated visually after about 3 weeks vs untreated controls, 100% = plants have died
Summary of the method: as §8

[19] = system: Digitaria sanguinalis; test: Post-emergence herbicidal efficacy at 320 g/ha, DIGSA; conditions: rated visually after about 3 weeks vs untreated controls, 100% = plants have died
Summary of the method: as §5

[20] = system: Echinochloa crus-galli; test: Post-emergence herbicidal efficacy at 320 g/ha, ECHCG; conditions: rated visually after about 3 weeks vs untreated controls, 100% = plants have died
Summary of the method: as §5

[21] = system: Veronica persica; test: Post-emergence herbicidal efficacy at 320 g/ha, VERPE; conditions: rated visually after about 3 weeks vs untreated controls, 100% = plants have died
Summary of the method: as §5

[22] = system: Poa annua; test: Post-emergence herbicidal efficacy at 320 g/ha, POAAN; conditions: rated visually after about 3 weeks vs untreated controls, 100% = plants have died
Summary of the method: as §5

[23] = system: Echinochloa crus-galli; test: Pre-emergence herbicide efficacy at 80 g/ha, ECHCG; conditions: scored visually after about 3 weeks vs untreated controls, 100% = plants have died
Description: as §1, §9, §10

[24] = system: Amaranthus retroflexus; test: Post-emergence herbicidal efficacy at 320 g/ha, AMARE; conditions: rated visually after about 3 weeks vs untreated controls, 100% = plants have died
Summary of the method: as §5

[25] = system: Setaria viridis; test: Post-emergence herbicidal efficacy at 320 g/ha, SETVI; conditions: rated visually after about 3 weeks vs untreated controls, 100% = plants have died
Summary of the method: as §5

[26] = system: Abutilon theophrasti; test: Pre-emergence herbicide efficacy at 320 g/ha, ABUTH; conditions: scored visually after about 3 weeks vs untreated controls, 100% = plants have died
Summary of the method: as §4

[27] = system: Digitaria sanguinalis; test: Post-emergence herbicidal efficacy at 80 g/ha, DIGSA; conditions: rated visually after about 3 weeks vs untreated controls, 100% = plants have died
Description: as §1, §2, §3

[28] = system: Viola tricolor; test: Pre-emergence herbicide efficacy at 80 g/ha, VIOTR
Summary of the method: as §6

[29] = system: Setaria viridis; test: Pre-emergence herbicide efficacy at 320 g/ha, SETVI; conditions: scored visually after about 3 weeks vs untreated controls, 100% = plants have died
Summary of the method: as §4

[30] = system: Echinochloa crus-galli; test: Pre-emergence herbicide efficacy at 320 g/ha, ECHCG; conditions: scored visually after about 3 weeks vs untreated controls, 100% = plants have died
Summary of the method: as §4

[31] = system: Setaria viridis; test: Pre-emergence herbicide efficacy at 80 g/ha, SETVI
Summary of the method: as §6

[32] = system: Amaranthus retroflexus; test: Pre-emergence herbicide efficacy at 80 g/ha, AMARE; conditions: scored visually after about 3 weeks vs untreated controls, 100% = plants have died
Summary of the method: as §6

[33] = system: Digitaria sanguinalis; test: Pre-emergence herbicide efficacy at 80 g/ha, DIGSA; conditions: scored visually after about 3 weeks vs untreated controls, 100% = plants have died
Summary of the method: as §6

[34] = system: Alopecurus myosuroides; test: Post-emergence herbicidal efficacy at 320 g/ha, ALOMY; conditions: rated visually after about 3 weeks vs untreated controls, 100% = plants have died
Description: as §1
Seeds of mono- and dicotyledonous weed plants were placed in plastic pots in sandy loam soil (doubly sown with in each case one species of mono- or dicotyledonous weed plants per pot), covered with soil and cultivated in a greenhouse under controlled growth conditions. 2 to 3 weeks after sowing, the test plants were treated at the one-leaf stage. The compounds of the invention, formulated in the form of wettable powders (WP) or as emulsion concentrates (EC), were applied to the green parts of the plants as aqueous suspension or emulsion with addition of 0.5% additive at a water application rate equivalent to 600 litres per hectare. After the test plants had been kept in the greenhouse under optimum growth conditions for about 3 weeks, the activity of the preparations was rated visually in comparison to untreated controls.
as §7
Tables A1 to A10 below show the effects of selected compounds of the general formula (I) according to Table 1 on various harmful plants and at an application rate corresponding to 320 g/ha, which were obtained by the trial procedure specified above.

In the case of Fc1cnc(Nc2cccc(F)c2-c2cc(C(F)F)no2)nc1 [Example 1-34], the “Post-emergence efficacy at 80 g/ha against ALOMY in %” value [1] was 100%, the “Pre-emergence efficacy at 320 g/ha against AMARE in %” value [2] was 100% and the “Post-emergence efficacy at 320 g/ha against STEME in %” value [3] was 100%. The “Pre-emergence efficacy at 320 g/ha against MATIN in %” value [4] was 100%, the “Pre-emergence efficacy at 80 g/ha against POLCO in %” value [5] was 90% and the “Pre-emergence efficacy at 320 g/ha against STEME in %” value [6] was 100%. The “Pre-emergence efficacy at 320 g/ha against VERPE in %” value [7] was 100%, the “Pre-emergence efficacy at 320 g/ha against DIGSA in %” value [8] was 100% and the “Pre-emergence efficacy at 320 g/ha against ALOMY in %” value [9] was 100%. The “Post-emergence efficacy at 80 g/ha against AMARE in %” value [10] was 100%, the “Pre-emergence efficacy at 80 g/ha against ALOMY in %” value [11] was 90% and the “Pre-emergence efficacy at 320 g/ha against POAAN in %” value [12] was 100%. The “Post-emergence efficacy at 80 g/ha against VERPE in %” value [13] was 100%, the “Post-emergence efficacy at 320 g/ha against KCHSC in %” value [14] was 100% and the “Pre-emergence efficacy at 320 g/ha against KCHSC in %” value [15] was 100%. For the same compound, the “Pre-emergence efficacy at 80 g/ha against ABUTH in %” value [16] was 90%, the “Pre-emergence efficacy against VERPE” value [17] was 100% and the “Post-emergence efficacy at 80 g/ha against VIOTR in %” value [18] was 80%. The “Post-emergence efficacy at 320 g/ha against DIGSA in %” value [19] was 100%, the “Post-emergence efficacy at 320 g/ha against ECHCG in %” value [20] was 100% and the “Post-emergence efficacy at 320 g/ha against VERPE in %” value [21] was 100%. For the same compound, the “Post-emergence efficacy at 320 g/ha against POAAN in %” value [22] was 100%, the “Pre-emergence efficacy at 80 g/ha against ECHCG in %” value [23] was 90% and the “Post-emergence efficacy at 320 g/ha against AMARE in %” value [24] was 100%. The “Post-emergence efficacy at 320 g/ha against SETVI in %” value [25] was 90%, the “Pre-emergence efficacy at 320 g/ha against ABUTH in %” value [26] was 100% and the “Post-emergence efficacy at 80 g/ha against DIGSA in %” value [27] was 80%. For the same compound, the “Pre-emergence efficacy against VIOTR” value [28] was 100%, the “Pre-emergence efficacy at 320 g/ha against SETVI in %” value [29] was 100% and the “Pre-emergence efficacy at 320 g/ha against ECHCG in %” value [30] was 100%. The “Pre-emergence efficacy against SETVI” value [31] was 100%, the “Pre-emergence efficacy at 80 g/ha against AMARE in %” value [32] was 100% and the “Pre-emergence efficacy at 80 g/ha against DIGSA in %” value [33] was 100%. For the same compound, the “Post-emergence efficacy at 320 g/ha against ALOMY in %” value [34] was 100%.
